Results reported in patent EP3868759A1, “2,3,5-SUBSTITUTED PYRROLO[2,3-B]PYRIDINES AS ERBB MODULATORS USEFUL FOR TREATING CANCER” (PearlRiver Bio GmbH, priority 2020, dated 2021).

How the values were obtained:
[1] = biological target: T1, HER2 INS YVMA (Homo sapiens, UniProt P04626, INS775YVMA); assay: Lance Kinase Activity Assay, Her2 Exon 20 InsYVMA; settings: biochemical Lance assay
T1 construct: purchased DPF
Method: This protocol describes how the Lance Kinase Activity Assay was performed to determine IC50 values of compounds of general formula (I) against HER2 INS YVMA. The principle behind this enzymatic assay is based upon the phosphorylation of the Ulight-peptide substrate. It is detected by using a specific EU-labeled anti-phospho peptide antibody. The binding of the Eu labeled anti-phospho peptide antibody to the phosphorylated ULight labeled peptide gives rise to a FRET-signal. Binding of an inhibitor to the kinase prevents phosphorylation of the Ulight-substrate, resulting in a loss of FRET. In table 2 is summarized the relevant information for the LANCE assay. Table 2: Reagents, stock concentrations and final assay concentrations for Her2 INS YVMA.
The compounds of general formula (I) summarized in Table 3 were serial diluted from a 10 mM DMSO stock solution 1:3 over 8 steps in a total volume of 20 µl. For every sample, 8 µl of kinase-substrate mix was transferred into a suitable assay plate (e.g. Corning #3673). Compound was added via pintool transfer (10nl/well) using a Biomek FX robot (BeckmanCoulter). Reaction was started by addition of 2µl ATP working solution and mixed using variomag teleshaker (Thermo Fischer Scientific). After 1 h incubation at room temperature the reaction was stopped with 10µl detection mix containing the Eu-labeled phosphospecific antibody and 10mM EDTA. After a second incubation period of 1 h at room temperature the FRET signal was measured at 340 nm excitation, 665 nm and 615 nm emission (for the ULight-substrate and Eu-AB, respectively) with an Envision spectrophotometer (Perkin Elmer, Waltham, MA, USA) with 50 µs delay and 300 µs integration time. IC50 values were determined from the sigmoidal dose response curves with the software Quattro Workflow (Quattro GmbH, Munich, Germany).

[2] = biological target: EGFR T790M L858R (Homo sapiens, UniProt P00533, L858R/T790M); assay: Lance assay, EGFR T790M L858R; settings: biochemical Lance assay
[3] = system: Cuto-17; assay: CellTiter-Glo cell viability, Cuto-17; format: cell-based; settings: CUTO17, 72 h, read-out: Cuto-17 CTG IC50
Method: (§1) The CellTiter-Glo Luminescent Cell Viability Assay (Promega) is a homogeneous method of determining the number of viable cells in culture. It is based on quantification of ATP, indicating the presence of metabolically active cells. Cells are seeded on day 1 at cell numbers that assure assay linearity and optimal signal intensity. After incubation for 24h in humidified chambers at 37°C and 5% CO2, compounds in DMSO are added at different concentrations. Cells are further incubated for 72 h at 37°C and 5% CO2. Cells treated with the compound vehicle DMSO are used as positive controls and cells treated with 10 µM Staurosporine serve as negative controls. At day 5 the CellTiter Glo Reagent is prepared according to the instructions of the kit (Promega Inc.): Reagent is mixed 1:1 with cell culture medium. Thereon, mixture and assay plates are equilibrated at room temperature for 20 min. Equal volumes of the reagent-medium-mixture is added to the volume of culture medium present in each well. The plates are mixed at ∼200 rpm for 2 minutes on an orbital shaker. The microplates are then incubated at room temperature for 10 minutes for stabilization of the luminescent signal. Following incubation the luminescence is recorded on a Victor microplate reader (Perkin Elmer) using a 200 ms integration time. The data is then analyzed with Excel using the XLFIT Plugin (dose response Fit 205) for IC50-determination. As quality control the Z'-factor is calculated from 16 positive and negative control values. Only assay results showing a Z'-factor ≥ 0.5 are used for further analysis.

[4] = system: EGFR vIII Ba/F3; assay: CellTiter-Glo cell viability, EGFR vIII Ba/F3; format: cell-based; settings: Mus musculus, BaF3, 72 h, read-out: EGFR vIII Ba/F3 CTG IC50 /
Method: as §1

[5] = system: H1975; assay: CellTiter-Glo cell viability, H1975; format: cell-based; settings: Homo sapiens, NCI-H1975, 72 h, read-out: H1975 CTG IC50
Method: as §1

[6] = biological target: EGFR wt (Homo sapiens, UniProt P00533); assay: Lance assay, EGFR wt; settings: biochemical Lance assay
[7] = system: Her2 Exon 20 InsYVMA Ba/F3; assay: CellTiter-Glo cell viability, Her2 Exon 20 InsYVMA Ba/F3; format: cell-based; settings: Mus musculus, BaF3, 72 h, read-out: Her2 Exon 20 InsYVMA Ba/F3 CTG IC50
Method: as §1

[8] = system: A431; assay: CellTiter-Glo cell viability, A431; format: cell-based; settings: Homo sapiens, A-431, 72 h, read-out: A431 CTG IC50
Method: as §1

[9] = system: EGFR Exon 20 InsNPH Ba/F3; assay: CellTiter-Glo cell viability, EGFR Exon 20 InsNPH Ba/F3; format: cell-based; settings: Mus musculus, BaF3, 72 h, read-out: EGFR Exon 20 InsNPH Ba/F3 CTG IC50
Method: as §1

[10] = biological target: EGFR (del746-750) (Homo sapiens, UniProt P00533, DEL746-750); assay: Lance assay, EGFR (del746-750); settings: biochemical Lance assay
[11] = system: EGFR L858R T790M Ba/F3; assay: CellTiter-Glo cell viability, EGFR L858R T790M Ba/F3; format: cell-based; settings: Mus musculus, BaF3, 72 h, read-out: EGFR L858R T790M Ba/F3 CTG IC50 /
Method: as §1

[12] = system: EGFR L858R Ba/F3; assay: CellTiter-Glo cell viability, EGFR L858R Ba/F3; format: cell-based; settings: Mus musculus, BaF3, 72 h, read-out: EGFR L858R Ba/F3 CTG IC50 /
Method: as §1

[13] = biological target: EGFR L858R (Homo sapiens, UniProt P00533, L858R); assay: Lance assay, EGFR L858R; settings: biochemical Lance assay
EGFR L858R, sequence (P00533 25-1210 L858R): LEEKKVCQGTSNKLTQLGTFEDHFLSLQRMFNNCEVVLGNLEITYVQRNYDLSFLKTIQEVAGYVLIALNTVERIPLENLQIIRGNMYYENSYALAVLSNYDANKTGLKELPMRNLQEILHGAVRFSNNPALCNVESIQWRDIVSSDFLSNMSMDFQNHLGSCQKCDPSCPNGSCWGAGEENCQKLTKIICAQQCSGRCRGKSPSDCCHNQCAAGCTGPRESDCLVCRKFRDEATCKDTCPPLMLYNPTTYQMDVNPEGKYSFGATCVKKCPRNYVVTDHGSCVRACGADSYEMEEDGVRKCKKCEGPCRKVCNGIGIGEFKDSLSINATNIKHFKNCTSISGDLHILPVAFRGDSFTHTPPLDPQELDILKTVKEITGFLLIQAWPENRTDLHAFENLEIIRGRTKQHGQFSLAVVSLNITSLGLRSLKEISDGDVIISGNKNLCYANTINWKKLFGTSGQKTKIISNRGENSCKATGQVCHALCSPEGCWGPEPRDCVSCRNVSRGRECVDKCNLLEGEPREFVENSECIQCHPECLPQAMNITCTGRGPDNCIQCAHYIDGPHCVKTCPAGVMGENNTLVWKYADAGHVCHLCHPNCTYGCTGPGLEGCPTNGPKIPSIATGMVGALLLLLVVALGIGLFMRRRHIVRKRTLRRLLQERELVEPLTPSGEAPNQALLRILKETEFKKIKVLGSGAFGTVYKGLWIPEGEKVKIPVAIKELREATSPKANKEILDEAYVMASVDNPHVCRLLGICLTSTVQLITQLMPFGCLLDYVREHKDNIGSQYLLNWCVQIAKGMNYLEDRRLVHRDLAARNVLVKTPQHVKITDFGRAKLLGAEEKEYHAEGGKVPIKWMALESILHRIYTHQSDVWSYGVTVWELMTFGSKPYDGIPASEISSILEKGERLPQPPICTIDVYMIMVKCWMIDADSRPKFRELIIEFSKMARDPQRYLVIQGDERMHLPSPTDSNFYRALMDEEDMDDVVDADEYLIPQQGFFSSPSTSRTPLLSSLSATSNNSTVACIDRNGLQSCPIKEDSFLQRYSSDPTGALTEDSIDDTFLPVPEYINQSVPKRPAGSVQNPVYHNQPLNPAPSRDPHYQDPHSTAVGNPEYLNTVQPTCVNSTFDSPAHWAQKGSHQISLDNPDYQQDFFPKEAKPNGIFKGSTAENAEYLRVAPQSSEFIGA

EGFR (del746-750), sequence (P00533 with tags, fused parts or gaps DEL746-750): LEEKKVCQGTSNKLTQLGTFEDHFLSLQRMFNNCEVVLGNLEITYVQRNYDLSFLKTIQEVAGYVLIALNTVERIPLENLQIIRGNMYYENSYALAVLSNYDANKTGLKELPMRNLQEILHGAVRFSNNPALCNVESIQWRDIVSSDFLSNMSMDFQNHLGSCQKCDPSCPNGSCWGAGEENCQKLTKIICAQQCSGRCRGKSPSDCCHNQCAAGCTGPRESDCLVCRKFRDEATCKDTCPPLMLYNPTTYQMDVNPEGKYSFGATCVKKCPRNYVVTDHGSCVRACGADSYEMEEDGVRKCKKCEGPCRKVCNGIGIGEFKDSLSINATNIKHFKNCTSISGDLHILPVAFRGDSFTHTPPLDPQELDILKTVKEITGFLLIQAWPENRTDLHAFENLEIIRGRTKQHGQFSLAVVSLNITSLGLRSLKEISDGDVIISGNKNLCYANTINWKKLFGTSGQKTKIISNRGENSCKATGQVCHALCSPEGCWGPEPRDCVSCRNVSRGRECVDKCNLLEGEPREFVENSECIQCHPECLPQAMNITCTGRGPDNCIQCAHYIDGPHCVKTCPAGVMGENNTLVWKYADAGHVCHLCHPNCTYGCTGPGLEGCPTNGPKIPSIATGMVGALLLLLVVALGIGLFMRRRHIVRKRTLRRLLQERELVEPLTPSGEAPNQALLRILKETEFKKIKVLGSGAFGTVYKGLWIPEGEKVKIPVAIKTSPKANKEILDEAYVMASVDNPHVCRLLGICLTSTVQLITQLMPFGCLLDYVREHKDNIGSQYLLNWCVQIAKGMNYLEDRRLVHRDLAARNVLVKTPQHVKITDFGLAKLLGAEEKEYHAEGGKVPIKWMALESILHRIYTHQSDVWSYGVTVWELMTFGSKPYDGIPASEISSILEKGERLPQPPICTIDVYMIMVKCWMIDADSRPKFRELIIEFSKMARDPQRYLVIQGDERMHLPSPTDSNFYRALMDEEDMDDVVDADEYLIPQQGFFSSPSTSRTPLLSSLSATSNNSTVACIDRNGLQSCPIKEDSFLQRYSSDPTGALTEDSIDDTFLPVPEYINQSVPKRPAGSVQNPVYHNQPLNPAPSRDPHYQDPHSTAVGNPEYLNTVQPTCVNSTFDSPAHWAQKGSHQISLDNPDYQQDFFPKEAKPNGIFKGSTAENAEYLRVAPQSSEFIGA
EGFR wt, sequence (P00533 25-1210): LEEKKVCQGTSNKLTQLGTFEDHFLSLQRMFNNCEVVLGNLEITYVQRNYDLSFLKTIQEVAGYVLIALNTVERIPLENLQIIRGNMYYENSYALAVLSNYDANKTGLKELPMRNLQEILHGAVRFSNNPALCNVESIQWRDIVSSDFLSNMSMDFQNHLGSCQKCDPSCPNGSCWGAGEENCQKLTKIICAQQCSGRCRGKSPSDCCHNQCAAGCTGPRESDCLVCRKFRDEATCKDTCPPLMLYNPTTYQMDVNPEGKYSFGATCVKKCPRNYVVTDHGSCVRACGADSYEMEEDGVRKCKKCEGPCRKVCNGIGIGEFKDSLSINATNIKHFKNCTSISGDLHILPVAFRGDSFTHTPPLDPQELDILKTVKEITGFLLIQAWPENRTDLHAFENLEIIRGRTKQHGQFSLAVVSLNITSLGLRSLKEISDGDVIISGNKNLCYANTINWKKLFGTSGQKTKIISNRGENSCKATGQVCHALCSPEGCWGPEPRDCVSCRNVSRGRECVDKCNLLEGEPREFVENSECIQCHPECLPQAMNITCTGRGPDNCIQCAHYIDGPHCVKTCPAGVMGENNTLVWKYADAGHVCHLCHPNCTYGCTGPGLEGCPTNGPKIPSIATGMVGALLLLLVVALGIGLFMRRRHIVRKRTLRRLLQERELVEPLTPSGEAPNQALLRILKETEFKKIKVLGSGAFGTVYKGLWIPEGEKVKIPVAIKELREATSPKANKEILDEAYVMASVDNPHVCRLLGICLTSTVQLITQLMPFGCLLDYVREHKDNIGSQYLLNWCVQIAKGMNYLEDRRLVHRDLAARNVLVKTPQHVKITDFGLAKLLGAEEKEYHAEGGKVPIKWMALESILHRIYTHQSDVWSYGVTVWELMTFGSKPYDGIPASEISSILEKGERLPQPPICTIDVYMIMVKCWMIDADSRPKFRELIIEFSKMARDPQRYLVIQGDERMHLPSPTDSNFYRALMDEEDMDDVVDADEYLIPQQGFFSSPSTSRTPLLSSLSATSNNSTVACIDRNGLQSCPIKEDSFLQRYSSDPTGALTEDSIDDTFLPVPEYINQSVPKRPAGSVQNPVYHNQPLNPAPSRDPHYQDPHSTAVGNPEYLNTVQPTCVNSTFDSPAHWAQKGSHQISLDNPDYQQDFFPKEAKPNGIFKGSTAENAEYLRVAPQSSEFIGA
T1 sequence (P04626 with tags, fused parts or gaps INS775YVMA): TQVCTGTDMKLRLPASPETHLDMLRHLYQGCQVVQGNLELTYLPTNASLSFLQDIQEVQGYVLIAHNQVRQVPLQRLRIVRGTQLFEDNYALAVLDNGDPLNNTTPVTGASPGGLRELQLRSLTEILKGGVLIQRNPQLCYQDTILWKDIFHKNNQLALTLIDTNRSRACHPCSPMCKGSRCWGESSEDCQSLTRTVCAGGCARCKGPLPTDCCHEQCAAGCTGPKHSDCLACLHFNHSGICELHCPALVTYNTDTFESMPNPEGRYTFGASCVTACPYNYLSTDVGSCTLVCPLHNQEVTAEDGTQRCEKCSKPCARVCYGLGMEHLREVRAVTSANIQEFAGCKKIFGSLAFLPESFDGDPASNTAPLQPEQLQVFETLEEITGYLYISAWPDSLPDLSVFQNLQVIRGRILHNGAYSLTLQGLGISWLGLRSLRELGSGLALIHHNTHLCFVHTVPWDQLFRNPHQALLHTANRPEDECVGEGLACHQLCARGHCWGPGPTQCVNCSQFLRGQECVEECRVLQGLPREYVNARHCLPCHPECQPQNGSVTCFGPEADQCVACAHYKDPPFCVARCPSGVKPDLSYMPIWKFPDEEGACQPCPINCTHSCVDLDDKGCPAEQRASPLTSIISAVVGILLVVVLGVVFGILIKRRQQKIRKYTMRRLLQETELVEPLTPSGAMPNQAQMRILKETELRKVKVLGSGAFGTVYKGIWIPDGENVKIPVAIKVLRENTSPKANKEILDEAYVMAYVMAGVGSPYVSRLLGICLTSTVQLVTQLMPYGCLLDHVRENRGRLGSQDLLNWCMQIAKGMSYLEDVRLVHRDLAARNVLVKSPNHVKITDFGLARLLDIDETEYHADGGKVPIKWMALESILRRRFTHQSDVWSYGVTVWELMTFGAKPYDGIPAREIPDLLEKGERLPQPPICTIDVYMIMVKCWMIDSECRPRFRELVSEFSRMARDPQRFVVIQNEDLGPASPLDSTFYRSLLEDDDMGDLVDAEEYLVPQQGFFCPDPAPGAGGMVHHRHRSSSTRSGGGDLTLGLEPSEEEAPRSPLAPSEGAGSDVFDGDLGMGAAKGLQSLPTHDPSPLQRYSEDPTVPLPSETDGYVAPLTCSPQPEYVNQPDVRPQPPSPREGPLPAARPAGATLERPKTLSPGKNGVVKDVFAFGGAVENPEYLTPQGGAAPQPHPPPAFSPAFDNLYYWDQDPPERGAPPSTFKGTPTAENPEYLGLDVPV

IC50 [1] [nM] | IC50 [2] [nM] | IC50 [4] [nM] | IC50 [5] [nM] | IC50 [6] [nM] | IC50 [7] [nM] | IC50 [8] [nM] | IC50 [9] [nM] | IC50 [10] [nM] | IC50 [11] [nM] | IC50 [12] [nM] | IC50 [13] [nM] | SMILES | IC50 [3] [nM]
50 to 100 | ≤ 50 | 100 to 500 | 100 to 500 | ≤ 50 | 100 to 500 | 1000 to 10000 | 50 to 100 | – | – | – | – | C=CC(=O)Nc1cc(-c2c(-c3cnn(CC4CC4)c3)[nH]c3ncc(C(=O)OC(C)C)c(C)c23)ccc1C [Example 21, isopropyl 3-(3-acrylamido-4-methylphenyl)-2-(1-(cyclopropylmethyl)-1 H-pyrazol-4-yl)-4-methyl-1 H-pyrrolo[2,3-b]pyridine-5-carboxylate] | 100 to 500
100 to 500 | 50 to 100 | 50 to 100 | – | ≤ 50 | 500 to 1000 | 1000 to 10000 | 100 to 500 | ≤ 50 | 100 to 500 | ≤ 50 | ≤ 50 | C=CC(=O)Nc1cc(-c2c(-c3cnn(CCO)c3)[nH]c3ncc(C(=O)OC(C)C)c(C)c23)ccc1C [Example 23, isopropyl 3-(3-acrylamido-4-methylphenyl)-2-(1-(2-hydroxyethyl)-1H-pyrazol-4-yl)-4-methyl-1 H-pyrrolo[2,3-b]pyridine-5-carboxylate] | –
100 to 500 | 50 to 100 | 50 to 100 | – | ≤ 50 | 500 to 1000 | 1000 to 10000 | 100 to 500 | ≤ 50 | 50 to 100 | ≤ 50 | ≤ 50 | C=CC(=O)Nc1cc(-c2c(-c3cnn(CC(C)O)c3)[nH]c3ncc(C(=O)OC(C)C)c(C)c23)ccc1C (stereo not drawn) [Example 24, isopropyl 3-(3-acrylamido-4-methylphenyl)-2-(1-(2-hydroxypropyl)-1H-pyrazol-4-yl)-4-methyl-1 H-pyrrolo[2,3-b]pyridine-5-carboxylate] | –
100 to 500 | 50 to 100 | 50 to 100 | – | ≤ 50 | 100 to 500 | 1000 to 10000 | 100 to 500 | ≤ 50 | 50 to 100 | ≤ 50 | ≤ 50 | C=CC(=O)Nc1cc(-c2c(-c3cn(C)cn3)[nH]c3ncc(C(=O)OC(C)C)c(C)c23)ccc1C [Example 25, isopropyl 3-(3-acrylamido-4-methylphenyl)-4-methyl-2-(1-methyl-1 H-imidazol-4-yl)-1H-pyrrolo[2,3-b]pyridine-5-carboxylate] | –

Second part, the compound before the results:

SMILES | IC50 [1] [nM] | IC50 [2] [nM] | IC50 [4] [nM] | IC50 [5] [nM] | IC50 [6] [nM] | IC50 [7] [nM] | IC50 [8] [nM] | IC50 [9] [nM] | IC50 [10] [nM] | IC50 [11] [nM] | IC50 [12] [nM] | IC50 [13] [nM] | IC50 [3] [nM]
C=CC(=O)Nc1cc(-c2c(-c3cnn(C)c3)[nH]c3ncc(O[C@@H](C)CC)cc23)ccc1C [Example 12, (S)-N-(5-(5-(sec-butoxy)-2-(1-methyl-1H-pyrazol-4-yl)-1H-pyrrolo[2,3-b]pyridin-3-yl)-2-methylphenyl)acrylamide 2,2,2-trifluoroacetate] | ≤ 50 | ≤ 50 | 100 to 500 | 500 to 1000 | ≤ 50 | 100 to 500 | 1000 to 10000 | 100 to 500 | – | – | – | – | 100 to 500
C=CC(=O)Nc1cc(-c2c(-c3cnn(C(C)C)c3)[nH]c3ncc(C(=O)OC(C)C)c(C)c23)ccc1C [Example 13, isopropyl 3-(3-acrylamido-4-methylphenyl)-2-(1-isopropyl-1 H-pyrazol-4-yl)-4-methyl-1H-pyrrolo[2,3-b]pyridine-5-carboxylate] | 100 to 500 | 50 to 100 | 100 to 500 | 100 to 500 | ≤ 50 | 100 to 500 | 1000 to 10000 | ≤ 50 | – | – | – | – | 100 to 500
C=CC(=O)Nc1cc(-c2c(-c3cnn(CCC)c3)[nH]c3ncc(C(=O)OC(C)C)c(C)c23)ccc1C [Example 14, isopropyl 3-(3-acrylamido-4-methylphenyl)-4-methyl-2-(1-propyl-1 H-pyrazol-4-yl)-1H-pyrrolo[2,3-b]pyridine-5-carboxylate] | 100 to 500 | 50 to 100 | 100 to 500 | 100 to 500 | ≤ 50 | 100 to 500 | 1000 to 10000 | 50 to 100 | – | – | – | – | 100 to 500
C=CC(=O)Nc1cc(-c2c(-c3cnn(C4CCC4)c3)[nH]c3ncc(C(=O)OC(C)C)c(C)c23)ccc1C [Example 16, isopropyl 3-(3-acrylamido-4-methylphenyl)-2-(1-cyclobutyl-1 H-pyrazol-4-yl)-4-methyl-1H-pyrrolo[2,3-b]pyridine-5-carboxylate] | 500 to 1000 | 100 to 500 | 100 to 500 | 500 to 1000 | ≤ 50 | 100 to 500 | 1000 to 10000 | 100 to 500 | – | – | – | – | 500 to 1000
C=CC(=O)Nc1cc(-c2c(-c3cnn(CCN4CCOCC4)c3)[nH]c3ncc(C(=O)OC(C)C)c(C)c23)ccc1C [Example 17, isopropyl 3-(3-acrylamido-4-methylphenyl)-4-methyl-2-(1-(2-morpholinoethyl)-1 H-pyrazol-4-yl)-1 H-pyrrolo[2,3-b]pyridine-5-carboxylate] | ≤ 50 | ≤ 50 | 100 to 500 | 500 to 1000 | ≤ 50 | 100 to 500 | 1000 to 10000 | 100 to 500 | – | – | – | – | 100 to 500
C=CC(=O)Nc1cc(-c2c(-c3cnn(C4COC4)c3)[nH]c3ncc(C(=O)OC(C)C)c(C)c23)ccc1C [Example 19, isopropyl 3-(3-acrylamido-4-methylphenyl)-4-methyl-2-(1-(oxetan-3-yl)-1 H-pyrazol-4-yl)-1 H-pyrrolo[2,3-b]pyridine-5-carboxylate] | ≤ 50 | ≤ 50 | 100 to 500 | 100 to 500 | ≤ 50 | 100 to 500 | 1000 to 10000 | ≤ 50 | – | – | – | – | 100 to 500
C=CC(=O)Nc1cc(-c2c(-c3cn[nH]c3)[nH]c3ncc(C(=O)OC(C)C)c(C)c23)ccc1C [Example 20, isopropyl 3-(3-acrylamido-4-methylphenyl)-4-methyl-2-(1 H-pyrazol-4-yl)-1 H-pyrrolo[2,3-b]pyridine-5-carboxylate] | 50 to 100 | ≤ 50 | 100 to 500 | 1000 to 10000 | ≤ 50 | 500 to 1000 | 1000 to 10000 | 100 to 500 | – | – | – | – | 500 to 1000
